Experimental data taken from patent US9738697B2 (Wisconsin Alumni Research Foundation, priority 2013, dated 2017).
“Also recorded” adds a separate entry of the source.

Key:
chymotrypsin [1] = biological target: T1, chymotrypsin (Bos taurus, UniProt P00766); assay: Protease assay with chymotrypsin (HPLC); assay type: in vitro ADME; details: 50 μg/mL chymotrypsin
T1 construct: purchased Promega V1062
Method: (§1) An HPLC method from the literature was used to assess protease action on selected compounds.^29,31 Two nmol of solid peptide was dissolved in 40 μL of TBS pH 8.0 (resulting concentration of peptide=40 μM) before protease was added. Chymotrypsin was purchased from Promega (Fitchburg, Wis.; catalog #V1062), and neprilysin was purchased from Reprokine. Ltd. (Valley Cottage, N.Y.; catalog #RKP08473); stock solutions of 250 μg/mL chymotrypsin and 200 μg/mL neprilysin in water were prepared. A 10 μL aliquot of protease stock solution was added to 40 μL of 40 μM peptide solution to begin the reaction. Periodically, a 10 μL aliquot of the solution was removed, and protease action was halted by adding this aliquot to 100 μL of 1% aqueous TFA solution. A portion (100 μL) of the quenched solution was injected onto an HPLC column using the conditions described under “Peptide Synthesis”, and peaks were analyzed using MALDI-TOF MS. The time course of peptide degradation was experimentally determined by integrating the area of each peak in a series of HPLC traces. The area percent of parent peptide (relative to the initial trace) was calculated for each trace and plotted in GraphPad Prism as an exponential decay to determine half-life values.
(§2) ID. […] Major backbone cut sites are indicated with double front slashes. […] Digestion occurs at three major cleavage sites. […] ID. NO: 7 with 50 μg/mL chymotrypsin in TBS pH 8.0 at room temperature. […] ID. NO: 9 with 50 μg/mL chymotrypsin in TBS pH 8.0 at room temperature. This peptide has seven substitutions, α→Aib.

chymotrypsin [2] = system: T2, chymotrypsin; assay: Protease assay with chymotrypsin (HPLC); assay type: in vitro ADME; details: chymotrypsin (50 μg/mL) in TBS; 50 μg/mL chymotrypsin, TBS pH 8.0, room temperature, 60 seconds; read-out: peptide remaining after 60 seconds of digestion
T2 construct: purchased Promega V1062
Method: as §1, §2

DPP-4 [3] = biological target: T3, DPP-4 (Homo sapiens, UniProt P27487); assay: Protease assay with DPP-4 (HPLC); assay type: in vitro ADME; details: DPP-4 (isolated protease); TBS pH 8.0, 37° C.
T3 construct: purchased EMD Biosciences 317640

C57BL/6J mice = assay: Glucose tolerance test (GTT) in mice; assay type: in vivo, mouse
Method: ID. NO: 7 was administered to mice by interperitoneal (i.p.) injection at a 1 mg/kg dose, or lower for SEQ. ID. NO: 7, using an injection volume of 10 mL/kg body mass. Each peptide was first dissolved in prefiltered DMSO at 10 mg/mL concentration, then diluted >20-fold with TBS buffer, pH 7.4 (final DMSO conc.=<5%). Glucose was administered by i.p. injection with a sterile-filtered 30% D-glucose-saline solution at a 1.5 g/kg dose using a 5 mL/kg injection volume.
Thirteen-week-old male C57BL/6J mice (The Jackson Laboratory) (n=4) were fasted overnight on wood chip bedding for 15 hours prior to the experiment. Blood glucose levels were monitored from a tail tip bleed using an ACCU-CHEK®-brand blood glucose meter (Roche Diagnostics, Indianapolis, Ind.). Fasting glucose levels were measured at 75 minutes prior to the glucose injection (t=−75 min), and the compound injection was performed 60 minutes prior to the glucose injection (t=−60 min). Glucose levels were measured immediately prior to the glucose injection (t=0 min) to assess any changes in the baseline glucose caused by peptide administration. Blood glucose levels were monitored at 30, 60, 90, and 120 minutes after injection of glucose.
Five hours after peptide injection, the mice received a second injection of 1.5 g/kg glucose. Blood glucose was monitored at 30 min after this second glucose injection. Mice were sacrificed by CO2 inhalation at the conclusion of the GTT.

neprilysin = biological target: T4, neprilysin (Homo sapiens, UniProt P08473); assay: Protease assay with neprilysin (HPLC); assay type: in vitro ADME; details: 40 μg/mL neprilysin
T4 construct: purchased Reprokine; Ltd. RKP08473
Method: An HPLC method from the literature was used to assess protease action on selected compounds.^29,31 Two nmol of solid peptide was dissolved in 40 μL of TBS pH 8.0 (resulting concentration of peptide=40 μM) before protease was added. Chymotrypsin was purchased from Promega (Fitchburg, Wis.; catalog #V1062), and neprilysin was purchased from Reprokine. Ltd. (Valley Cottage, N.Y.; catalog #RKP08473); stock solutions of 250 μg/mL chymotrypsin and 200 μg/mL neprilysin in water were prepared. A 10 μL aliquot of protease stock solution was added to 40 μL of 40 μM peptide solution to begin the reaction. Periodically, a 10 μL aliquot of the solution was removed, and protease action was halted by adding this aliquot to 100 μL of 1% aqueous TFA solution. […] The time course of peptide degradation was experimentally determined by integrating the area of each peak in a series of HPLC traces. The area percent of parent peptide (relative to the initial trace) was calculated for each trace and plotted in GraphPad Prism as an exponential decay to determine half-life values.
Major backbone cut sites, as determined by MALDI-TOF-MS, are indicated with double front slashes.

DPP-4 [4] = assay: DPP-4 (EMD Biosciences; catalog #317640) in TBS buffer, pH 8.0; details: 37° C., up to seven (7) days
neprilysin (NEP 24.11) = details: cited from earlier work
[5] = system: dipeptidyl peptidase-4 (DPP-4); details: cited from earlier work

T4 sequence (P08473 whole entry): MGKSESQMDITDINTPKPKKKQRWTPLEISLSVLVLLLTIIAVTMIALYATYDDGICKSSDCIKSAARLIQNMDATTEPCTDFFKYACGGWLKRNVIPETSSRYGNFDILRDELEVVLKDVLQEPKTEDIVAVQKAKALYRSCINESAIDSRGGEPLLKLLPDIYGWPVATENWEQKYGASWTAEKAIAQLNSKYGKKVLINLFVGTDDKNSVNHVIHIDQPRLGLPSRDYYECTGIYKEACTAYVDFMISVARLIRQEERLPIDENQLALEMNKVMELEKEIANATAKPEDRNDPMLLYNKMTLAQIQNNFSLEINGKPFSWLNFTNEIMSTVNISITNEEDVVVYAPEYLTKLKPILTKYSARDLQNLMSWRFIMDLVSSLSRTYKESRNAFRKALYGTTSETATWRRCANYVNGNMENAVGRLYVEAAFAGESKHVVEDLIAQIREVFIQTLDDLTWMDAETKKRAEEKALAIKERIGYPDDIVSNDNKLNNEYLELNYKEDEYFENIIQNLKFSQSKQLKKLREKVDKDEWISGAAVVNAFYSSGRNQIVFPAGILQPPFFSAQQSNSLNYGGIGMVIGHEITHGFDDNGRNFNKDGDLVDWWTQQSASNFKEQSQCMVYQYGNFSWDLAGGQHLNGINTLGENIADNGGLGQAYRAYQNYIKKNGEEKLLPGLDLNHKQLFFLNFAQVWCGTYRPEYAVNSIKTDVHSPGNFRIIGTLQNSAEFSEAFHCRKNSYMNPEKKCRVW
T3 sequence (P27487 whole entry): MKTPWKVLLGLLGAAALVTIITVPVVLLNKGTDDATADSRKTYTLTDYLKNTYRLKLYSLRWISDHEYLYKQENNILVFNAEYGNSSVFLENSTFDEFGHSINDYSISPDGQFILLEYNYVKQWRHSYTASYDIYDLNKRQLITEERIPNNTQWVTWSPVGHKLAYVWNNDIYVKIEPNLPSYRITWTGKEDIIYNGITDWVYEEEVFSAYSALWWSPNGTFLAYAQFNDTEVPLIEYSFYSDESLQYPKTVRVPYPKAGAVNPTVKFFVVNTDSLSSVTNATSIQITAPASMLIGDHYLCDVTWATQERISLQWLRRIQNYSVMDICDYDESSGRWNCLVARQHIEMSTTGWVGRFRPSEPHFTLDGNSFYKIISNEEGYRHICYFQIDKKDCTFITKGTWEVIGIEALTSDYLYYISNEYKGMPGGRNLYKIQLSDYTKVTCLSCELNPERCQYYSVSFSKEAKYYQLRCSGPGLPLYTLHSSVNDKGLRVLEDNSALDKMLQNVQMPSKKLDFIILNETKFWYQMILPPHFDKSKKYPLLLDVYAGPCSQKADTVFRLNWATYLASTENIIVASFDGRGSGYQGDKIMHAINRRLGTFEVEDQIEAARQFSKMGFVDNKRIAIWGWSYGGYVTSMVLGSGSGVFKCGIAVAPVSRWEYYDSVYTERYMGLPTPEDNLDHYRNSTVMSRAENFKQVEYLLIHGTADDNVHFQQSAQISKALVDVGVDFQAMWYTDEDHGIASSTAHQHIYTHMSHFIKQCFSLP

## CC[C@H](C)[C@H](NC(=O)[C@H](Cc1ccccc1)NC(=O)[C@H](CCC(=O)O)NC(=O)[C@H](CCCCN)NC(=O)[C@H](C)NC(=O)[C@H](C)NC(=O)[C@H](CCC(N)=O)NC(=O)CNC(=O)[C@H](CCC(=O)O)NC(=O)[C@H](CC(C)C)NC(=O)[C@H](Cc1ccc(O)cc1)NC(=O)[C@H](CO)NC(=O)[C@H](CO)NC(=O)[C@@H](NC(=O)[C@H](CC(=O)O)NC(=O)[C@H](CO)NC(=O)[C@@H](NC(=O)[C@H](Cc1ccccc1)NC(=O)[C@@H](NC(=O)CNC(=O)[C@H](CCC(=O)O)NC(=O)[C@H](C)NC(=O)[C@@H](N)Cc1c[nH]cn1)[C@@H](C)O)[C@@H](C)O)C(C)C)C(=O)N[C@@H](C)C(=O)N[C@@H](Cc1c[nH]c2ccccc12)C(=O)N[C@@H](CC(C)C)C(=O)N[C@H](C(=O)N[C@@H](CCCCN)C(=O)NCC(=O)N[C@@H](CCCNC(=N)N)C(=O)NCC(N)=O)C(C)C [SEQ. ID. NO: 1]
Chymotrypsin [1]; MALDI-TOF-MS
  number of major cleavage sites, chymotrypsin: three
Chymotrypsin [1]; chymotrypsin (isolated protease), 40 μM peptide, TBS pH 8.0, room temperature, read-out: t1/2 with chymotrypsin (converted)
  half-life at 40 μM: 0.317 min
Chymotrypsin [2]
  remaining at 1 min, 40 μM: < 25%
DPP-4 [3]
  half-life at 40 μM: 13.5 min
C57BL/6J mice; 1 mg/kg i.p., time 0.0 min
  Average Blood Glucose Level: 81.8 mg/dL
C57BL/6J mice; 1 mg/kg i.p., time 30.0 min
  Average Blood Glucose Level: 132.8 mg/dL
C57BL/6J mice; 1 mg/kg i.p., time 60.0 min
  Average Blood Glucose Level: 99.3 mg/dL
C57BL/6J mice; 1 mg/kg i.p., time 90.0 min
  Average Blood Glucose Level: 74.8 mg/dL
C57BL/6J mice; 1 mg/kg i.p., time 120.0 min
  Average Blood Glucose Level: 86.0 mg/dL
C57BL/6J mice; 1 mg/kg i.p., time −60.0 min (peptide injection)
  Average Blood Glucose Level: 108.0 mg/dL
C57BL/6J mice; 1 mg/kg i.p., Table 7, 30 min after second glucose injection given five hours after peptide
  Average Blood Glucose Level at 30 min (column head AUC): 250.5
C57BL/6J mice; 1 mg/kg, 30 min after the second glucose challenge
  glucose-lowering effect in GTT repeated 5 hours after agonist administration (in words): no significant difference
neprilysin; MALDI-TOF-MS
  number of major cleavage sites, neprilysin: five
neprilysin; neprilysin (isolated protease), pH 8, 40 μM peptide, TBS pH 8.0, room temperature, read-out: half-life (t1/2) with neprilysin (converted)
  half-life at 40 μM: 19.8 min

## H-HAEGTFTSDASXYLEXQAAXEFIXWLVZGRG-NH2
DPP-4 [4]
  not cleaved: no cleavage was detected during seven (7) days

## H-HAEGTFTSDVSSYLEGQAAKEFIAWLVKGRG-NH2
Neprilysin (NEP 24.11)
  cleaved bond: Asp15-Val16; also recorded: cleaves after Ser18; also recorded: cleaves after Tyr19; also recorded: cleaves after Glu27; also recorded: cleaves after Phe28; also recorded: cleaves after Trp31
[5]
  cleaved bond: cleaves after Ala8
